Measured values as given in US11180504B2 (ORCHID PHARMA LTD., priority 2016, dated 2021).
≈ marks a conversion by molar mass, not a printed value.

Tests used:
[1] = system: methicillin-sensitive Staphylococcus aureus; test: MIC by broth micro-dilution (CLSI), methicillin-sensitive S. aureus; type: cell-based; conditions: Staphylococcus aureus, ATCC 29213 / MSSA, MSSA S. aureus ATCC29213; read-out: MIC
[2] = system: carbapenemase producing K. pneumoniae; test: MIC by broth micro-dilution (CLSI), carbapenemase producing K. pneumoniae; type: cell-based, Klebsiella pneumoniae; conditions: Klebsiella pneumoniae, ATCCBAA1705, KPC-2 K. pneumoniae ATCC BAA-1705; read-out: MIC
[3] = system: carbapenem sensitive Escherichia coli; test: MIC by broth micro-dilution (CLSI), carbapenem sensitive E. coli; type: cell-based; conditions: Escherichia coli, ATCC25922, ESBL −ve E. coli ATCC25922; read-out: MIC
[4] = system: carbapenem sensitive Pseudomonas aeruginosa; test: MIC by broth micro-dilution (CLSI), carbapenem sensitive P. aeruginosa; type: cell-based; conditions: Pseudomonas aeruginosa, ATCC27853, Meropenem susceptible P. aeruginosa ATCC27853; read-out: MIC

Row | MIC [1] [µg/mL] | MIC [2] [µg/mL] | MIC [3] [µg/mL] | MIC [4] [µg/mL] | Structure (SMILES)
1 | 2 (≈ 3.64 µM) | 0.5 (≈ 0.91 µM) | 0.25 (≈ 0.455 µM) | 1 (≈ 1.82 µM) | C[C@@H](NC(=O)Cn1cnnn1)[C@H]1C(=O)N2C(C(=O)O)=C(S[C@@H]3CN[C@H](C(=O)N4C[C@@H](O)[C@@H](N)C4)C3)[C@H](C)[C@H]12 [Example 431, (4R,5S,6R)-6-((R)-1-(2-(1H-tetrazol-1-yl)acetamido)ethyl)-3-((3S,5S)-5-((3S,4R)-3-amino-4-hydroxypyrrolidine-1-carbonyl)pyrrolidin-3-ylthio)-4-methyl-7-oxo-1-azabicyclo[3.2.0]hept-2-ene-2-carboxylic acid]
2 | 4 (≈ 7.07 µM) | 2 (≈ 3.54 µM) | 0.25 (≈ 0.442 µM) | 2 (≈ 3.54 µM) | C[C@@H](NC(=O)Cn1cnnn1)[C@H]1C(=O)N2C(C(=O)O)=C(S[C@@H]3CN[C@H](C(=O)N4CCC(N)C(F)C4)C3)[C@H](C)[C@H]12 (single isomer, unassigned) [Example 425]

Continued, molecule first:

Row | Structure (SMILES) | MIC [1] [µg/mL] | MIC [2] [µg/mL] | MIC [3] [µg/mL] | MIC [4] [µg/mL]
3 | C[C@@H](NC(=O)Cn1cnnn1)[C@H]1C(=O)N2C(C(=O)O)=C(S[C@@H]3CN[C@H](C(=O)N4CCN(C(=O)[C@@H](N)CN)CC4)C3)[C@H](C)[C@H]12 [Example 456, (4R,5S,6R)-6-((R)-1-(2-(1H-tetrazol-1-yl)acetamido)ethyl)-3-((3S,5S)-5-(4-((S)-2,3-diaminopropanoyl)piperazine-1-carbonyl)pyrrolidin-3-ylthio)-4-methyl-7-oxo-1-azabicyclo[3.2.0]hept-2-ene-2-carboxylic acid] | 2 (≈ 3.23 µM) | 2 (≈ 3.23 µM) | 0.5 (≈ 0.807 µM) | 2 (≈ 3.23 µM)
4 | C[C@@H](NC(=O)CN1CCC(F)(F)C1)[C@H]1C(=O)N2C(C(=O)O)=C(S[C@@H]3CN[C@H](C(=O)N(C)C)C3)[C@H](C)[C@H]12 [Example 512, (4R,5S,6R)-6-((R)-1-(2-(3,3-difluoropyrrolidin-1-yl)acetamido)ethyl)-3-((3S,5S)-5-(dimethylcarbamoyl)pyrrolidin-3-ylthio)-4-methyl-7-oxo-1-azabicyclo[3.2.0]hept-2-ene-2-carboxylic acid] | 8 (≈ 15.1 µM) | 64 (≈ 121 µM) | 2 (≈ 3.78 µM) | > 128
5 | C[C@@H]1C[C@H](N)CN1C(=O)[C@@H]1C[C@H](SC2=C(C(=O)O)N3C(=O)[C@H]([C@@H](C)NC(=O)Cn4cnnn4)[C@H]3[C@H]2C)CN1 [Example 411, (4R,5S,6R)-6-((R)-1-(2-(1H-tetrazol-1-yl)acetamido)ethyl)-3-((3S,5S)-5-((2R,4S)-4-amino-2-methylpyrrolidine-1-carbonyl)pyrrolidin-3-ylthio)-4-methyl-7-oxo-1-azabicyclo[3.2.0]hept-2-ene-2-carboxylic acid] | 2 (≈ 3.65 µM) | 1 (≈ 1.83 µM) | 0.25 (≈ 0.457 µM) | 1 (≈ 1.83 µM)
6 | C[C@@H](NC(=O)Cn1cnnn1)[C@H]1C(=O)N2C(C(=O)O)=C(S[C@@H]3CN[C@H](C(=O)N4C[C@@H]5NC(=N)N[C@@H]5C4)C3)[C@H](C)[C@H]12 [Example 580, (4R,5S,6R)-6-((R)-1-(2-(1H-tetrazol-1-yl)acetamido)ethyl)-3-((3S,5S)-5-((3aR,6aS)-2-iminooctahydropyrrolo[3,4-d]imidazole-5-carbonyl)pyrrolidin-3-ylthio)-methyl-7-oxo-1-azabicyclo[3.2.0]hept-2-ene-2-carboxylic acid] | 2 (≈ 3.49 µM) | 1 (≈ 1.74 µM) | 0.25 (≈ 0.436 µM) | 0.5 (≈ 0.872 µM)
7 | CCCCN[C@H](C)[C@H]1C(=O)N2C(C(=O)O)=C(S[C@@H]3CN[C@H](C(=O)N(C)C)C3)[C@H](C)[C@H]12 [Example 274] | 32 (≈ 73 µM) | 16 (≈ 36.5 µM) | 16 (≈ 36.5 µM) | > 128
